TGI and GI50 data for 15 compounds are collected here from PubChem BioAssay (NCI).

Among the test systems are SK-MEL-28 melanoma; HOP-62 NSCLC; SR leukemia; KM12 colon; RXF 393 renal; OVCAR-4 ovarian; A549 NSCLC; IGROV1 ovarian; HCT-15 colon; BT-549 breast.
Assay in all cases: DTP human tumour cell line panel, 48 h

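Following 48 hours of exposure in 96-well plates, responses at five concentrations were used to interpolate endpoints linearly. GI50: concentration for 50% inhibition of growth. At the TGI there is no net growth.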 Where only a bound is given, the exact number is not on record here.

A word on the TGI: it is the concentration at which net growth stops. Low readings indicate more potent growth arrest, high ones less potent growth arrest. In the case of `CC(=O)/C=C1\CC(=O)N(C)c2ccccc2N1`, the TGI in the test with SK-MEL-28 melanoma, with HOP-62 NSCLC, with SR leukemia, in the test on KM12 colon, in the test with RXF 393 renal and in the test with OVCAR-4 ovarian was above 100 µM each time. In addition, the TGI in the test with A549 NSCLC and in the test with IGROV1 ovarian was above 100 µM throughout.
As for `CCCCC[C@@H]1CCCC2NC(CCCCCO[Si](c3ccccc3)(c3ccccc3)C(C)(C)C)CCC21` (some centres undefined), the TGI was 32.2 µM in the test with SK-MEL-28 melanoma; 25.7 µM in the test with HCT-15 colon; 36.8 µM with HOP-62 NSCLC; 25.4 µM in the test with KM12 colon; 25.4 µM in the test on RXF 393 renal; 21 µM with OVCAR-4 ovarian. Moreover, the TGI with A549 NSCLC is 33.9 µM; in the test on IGROV1 ovarian, 32.9 µM.
Usually GI50 stands for the concentration giving 50% growth inhibition. With `COc1ccc(-c2cn(C)c3c2-n2cccc2C3=O)cc1O`, the GI50 in the test with SK-MEL-28 melanoma was 11.4 µM; in the test with HCT-15 colon, 1.86 µM; in the test on HOP-62 NSCLC, 5.93 µM; with KM12 colon it was 3.71 µM; in the test with RXF 393 renal, 42.3 µM; in the test with OVCAR-4 ovarian, 25.6 µM. For the same compound, the results for the GI50 with BT-549 breast, with A549 NSCLC and in the test with IGROV1 ovarian were 3.99 µM, 18.1 µM and 26.9 µM, respectively. Further, the TGI in the test on SK-MEL-28 melanoma was 33.8 µM; in the test on HCT-15 colon it was 9.15 µM; in the test with HOP-62 NSCLC, 29.3 µM; in the test with KM12 colon, 16.4 µM; in the test on RXF 393 renal it was 99.4 µM; in the test with OVCAR-4 ovarian, above 100 µM. For the same compound, the TGI in the test with BT-549 breast is 23.2 µM; with A549 NSCLC, 54.1 µM; with IGROV1 ovarian, 75.2 µM.
Take `COc1ccc2c(c1OC)C(=O)C2`: the TGI with SK-MEL-28 melanoma, with HCT-15 colon, in the test with HOP-62 NSCLC, in the test with SR leukemia, in the test on KM12 colon and with RXF 393 renal was above 100 µM in each case. The TGI in the test on OVCAR-4 ovarian and in the test with A549 NSCLC was above 100 µM each time.
Regarding `O=C(c1ccccc1)c1nc2c(Cl)ccc(Cl)c2cc1C(Br)Br`, the TGI was determined as 0.637 µM in the test with SK-MEL-28 melanoma; 2.88 µM in the test with HCT-15 colon; 3.11 µM with HOP-62 NSCLC; 13.1 µM with SR leukemia; 2.55 µM in the test with KM12 colon; 4.05 µM in the test on RXF 393 renal. Also, the TGI was determined as 3.48 µM with OVCAR-4 ovarian, 13.4 µM with A549 NSCLC and 12.4 µM in the test with IGROV1 ovarian.
For `O=C(NCCCN1CCN(CCCNC(=O)c2cccc3ccccc23)CC1)c1cccc2ccccc12`, the TGI with HCT-15 colon, in the test with HOP-62 NSCLC, in the test on KM12 colon, in the test with OVCAR-4 ovarian, with A549 NSCLC and with IGROV1 ovarian was above 100 µM each time.
In the case of `CN(C)CCCNc1ccnc2c([N+](=O)[O-])cccc12`, the TGI in the test on SK-MEL-28 melanoma was above 100 µM; in the test on HCT-15 colon, 43.7 µM; in the test with HOP-62 NSCLC it was 82.5 µM; in the test with SR leukemia it was 96.4 µM; with KM12 colon, above 100 µM; in the test on OVCAR-4 ovarian, 28.5 µM. In the test on A549 NSCLC, this compound yielded a TGI of 75.5 µM.
For `COc1ccc(C2=C(OC(C)=O)c3cccn3-c3ccc(Cl)cc3S2)cc1`, the TGI with SK-MEL-28 melanoma is above 10 µM; in the test with HCT-15 colon it was above 10 µM; in the test on HOP-62 NSCLC, above 10 µM; with SR leukemia, 7.3 µM; in the test on KM12 colon, 9.75 µM; with RXF 393 renal, above 10 µM. The TGI in the test on OVCAR-4 ovarian, with A549 NSCLC and in the test with IGROV1 ovarian was above 10 µM each time.
In the case of `CC1=CC(=O)NP(=O)(Oc2ccc(Cl)cc2)N1` (centres undefined), the total growth inhibition concentration (TGI) with SK-MEL-28 melanoma, in the test with HCT-15 colon, in the test on HOP-62 NSCLC, in the test on SR leukemia, in the test with KM12 colon and in the test with RXF 393 renal was above 100 µM throughout. Further, the TGI with OVCAR-4 ovarian, in the test with A549 NSCLC and in the test on IGROV1 ovarian was above 100 µM in each case.
Regarding `Cc1cccc(NC(=O)c2c(N)[n+]([O-])c3ccccc3[n+]2[O-])c1`, the concentration for total growth inhibition (TGI) in the test on SK-MEL-28 melanoma was 20.7 µM; in the test on HOP-62 NSCLC, 31.3 µM; in the test on SR leukemia, above 100 µM; in the test on KM12 colon, 30.3 µM; with RXF 393 renal it was 13.3 µM; in the test on OVCAR-4 ovarian, 23.3 µM. For the same compound, the TGI with A549 NSCLC stood at 34.6 µM; in the test on IGROV1 ovarian it was 21.5 µM.
`COc1ccc2nc3cc(Cl)ccc3c(Sc3ccc(N)cc3)c2c1`: the TGI was 29.6 µM in the test on SK-MEL-28 melanoma; 20.1 µM with HCT-15 colon; 49.8 µM with HOP-62 NSCLC; 11.4 µM in the test on SR leukemia; 19.4 µM in the test on KM12 colon; 24.7 µM in the test with RXF 393 renal. The total growth inhibition concentration (TGI) amounted to 29.9 µM with OVCAR-4 ovarian, 30.1 µM in the test with A549 NSCLC and 32 µM with IGROV1 ovarian.
For the compound `C=CC[P@]1(=O)O[C@H](c2ccccc2)C(C)N1C(C)C` (some centres undefined), the TGI in the test with SK-MEL-28 melanoma, with HCT-15 colon, in the test on HOP-62 NSCLC, in the test with SR leukemia, with KM12 colon and with RXF 393 renal was above 100 µM throughout. Besides, the TGI in the test on A549 NSCLC and in the test with IGROV1 ovarian was above 100 µM throughout.
Consider `C=CCCC(O)c1cc(C)c(O)c(C)c1` (centres undefined), for which the total growth inhibition concentration (TGI) in the test on SK-MEL-28 melanoma, with HCT-15 colon, with HOP-62 NSCLC, with KM12 colon, in the test with RXF 393 renal and in the test with A549 NSCLC was above 100 µM in each case. The total growth inhibition concentration (TGI) in the test on IGROV1 ovarian was above 100 µM.
Turning to `COc1ccccc1/C=C1\C(=O)N(C(=O)Cc2ccccc2)N=C1C`, the TGI in the test with SK-MEL-28 melanoma, in the test on HCT-15 colon, in the test with HOP-62 NSCLC, in the test with SR leukemia, in the test with KM12 colon and in the test on OVCAR-4 ovarian was above 100 µM in each case. Besides, in the test on A549 NSCLC, the TGI was above 100 µM.
In the case of `Cc1[nH]n(-c2nc(-c3ccccc3)cc(=O)[nH]2)c(=O)c1CCO`, the TGI in the test on SK-MEL-28 melanoma, with HCT-15 colon, in the test with HOP-62 NSCLC, in the test on KM12 colon, with RXF 393 renal and in the test on OVCAR-4 ovarian was above 100 µM throughout. The total growth inhibition concentration (TGI) in the test on A549 NSCLC and in the test with IGROV1 ovarian was above 100 µM throughout.
